Consider twelve molecules from PubChem BioAssay (NCI).

Among the test systems are HCT-116 colon; MDA-N; HCC-2998 colon; ACHN renal; MDA-MB-231 breast; HCT-15 colon; SN12C renal; MALME-3M melanoma; OVCAR-4 ovarian; DU-145 prostate; SK-MEL-5 melanoma; MOLT-4 leukemia; KM12 colon; U251 CNS; SK-OV-3 ovarian; SF-268 CNS; HS 578T breast; CCRF-CEM leukemia; HT29 colon.
What all share (experiment): growth of human tumour cells (NCI), 48 h

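Compound exposure: 48 hours, 5 concentrations, 96-well plates. Definition used: TGI = concentration required for complete inhibition of growth.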 Where a SMILES comes first, the peptide text is derived from it. Bridges are numbered along the chain shown (N, C = ends). [ ]: non-standard residue; d: D form. The star is where a group is joined. PhAc = O=C(Cc1ccccc1)*

As for `CCC(=O)C1(N2CCOCC2)CCN(CCCC(=O)c2ccc(F)cc2)CC1`, the TGI in the experiment on HCT-116 colon, with MDA-N, in the experiment on HCC-2998 colon, in the experiment with ACHN renal, with MDA-MB-231 breast and with HCT-15 colon was > 100 µM in each case. The TGI with SN12C renal, in the experiment with MALME-3M melanoma, with OVCAR-4 ovarian, in the experiment on DU-145 prostate, in the experiment with SK-MEL-5 melanoma and with MOLT-4 leukemia was > 100 µM in each case. Further, the TGI with KM12 colon, in the experiment with U251 CNS, in the experiment with SK-OV-3 ovarian, with SF-268 CNS, with HS 578T breast and with CCRF-CEM leukemia was > 100 µM each time. Besides, the TGI with HT29 colon is > 100 µM.

With `O=C(Cc1ccccc1)N[C@@H]1COC(=O)[C@@H]2CCCN2C(=O)[C@@H]2CCCN2C1=O` (PhAc-[dS]-Pro-Pro; ester 1-C), the TGI with HCT-116 colon, in the experiment with MDA-N, with HCC-2998 colon, in the experiment with ACHN renal, in the experiment with MDA-MB-231 breast and with HCT-15 colon was > 100 µM throughout. Also, the TGI in the experiment on SN12C renal, with MALME-3M melanoma, with OVCAR-4 ovarian, with DU-145 prostate, in the experiment on SK-MEL-5 melanoma and in the experiment with MOLT-4 leukemia was > 100 µM in each case. Also, the TGI in the experiment with KM12 colon, with SK-OV-3 ovarian, with SF-268 CNS, in the experiment on HS 578T breast, with CCRF-CEM leukemia and in the experiment on HT29 colon was > 100 µM in each case.

For `C=CCOc1ccc(/C(N=Nc2ccc(C)cc2)=N/NC(=O)c2ccccc2)cc1OC`, the TGI in the experiment with HCT-116 colon is 82.6 µM; in the experiment on MDA-N, 57.6 µM; with HCC-2998 colon, 76.5 µM; in the experiment with ACHN renal, > 100 µM; with MDA-MB-231 breast, > 100 µM; in the experiment on HCT-15 colon, > 100 µM. For the same molecule, the TGI is > 100 µM in the experiment on SN12C renal; 76.9 µM in the experiment on MALME-3M melanoma; > 100 µM with OVCAR-4 ovarian; > 100 µM in the experiment with DU-145 prostate; 31.9 µM with SK-MEL-5 melanoma; > 100 µM in the experiment with MOLT-4 leukemia. For the same molecule, the TGI in the experiment on KM12 colon is 48.7 µM; in the experiment with U251 CNS, > 100 µM; in the experiment with SF-268 CNS, > 100 µM; in the experiment on HS 578T breast, 87.6 µM; with CCRF-CEM leukemia it was 41.1 µM; in the experiment with HT29 colon it was > 100 µM.

With `Nc1ccc(Oc2ccc(C3(c4ccc(Oc5ccc(N)cc5)cc4)C4CC5C6CC7CC5C3C(C7)C6C4)cc2)cc1`, the TGI in the experiment with HCT-116 colon was > 100 µM; in the experiment on MDA-N it was > 100 µM; with HCC-2998 colon, > 77.9 µM; in the experiment on ACHN renal, > 100 µM; with MDA-MB-231 breast, 77 µM; with HCT-15 colon, > 100 µM. The TGI with SN12C renal was 98.5 µM; in the experiment on MALME-3M melanoma it was > 100 µM; with OVCAR-4 ovarian, > 100 µM; with DU-145 prostate, > 100 µM; with SK-MEL-5 melanoma, > 100 µM; in the experiment with MOLT-4 leukemia, > 100 µM. For the same molecule, the TGI is > 87.8 µM in the experiment on KM12 colon; > 70 µM in the experiment on U251 CNS; > 100 µM with SF-268 CNS; > 100 µM in the experiment with HS 578T breast; > 100 µM in the experiment on CCRF-CEM leukemia; > 100 µM with HT29 colon.

With `Cc1c(C#N)c(N)[nH]c(=S)c1C#N`, the TGI in the experiment on HCT-116 colon, in the experiment with MDA-N, in the experiment with HCC-2998 colon, with ACHN renal, in the experiment on MDA-MB-231 breast and with HCT-15 colon was > 100 µM each time. The TGI in the experiment on SN12C renal, in the experiment with MALME-3M melanoma, with DU-145 prostate, with SK-MEL-5 melanoma, in the experiment with MOLT-4 leukemia and in the experiment on KM12 colon was > 100 µM in each case. In addition, the TGI in the experiment on U251 CNS, in the experiment on SF-268 CNS, with HS 578T breast, with CCRF-CEM leukemia and with HT29 colon was > 100 µM in each case.

Take `CC(C)(C)N1C(=O)c2ccccc2C1(O)C(F)(F)F` (centres undefined): the TGI in the experiment with HCT-116 colon, in the experiment on MDA-N, in the experiment on HCC-2998 colon, in the experiment with ACHN renal, with MDA-MB-231 breast and in the experiment with HCT-15 colon was > 100 µM throughout. Besides, the TGI with SN12C renal, in the experiment on MALME-3M melanoma, in the experiment with OVCAR-4 ovarian, in the experiment on DU-145 prostate, with SK-MEL-5 melanoma and in the experiment on KM12 colon was > 100 µM in each case. Moreover, the TGI is > 100 µM with U251 CNS; > 100 µM in the experiment with SK-OV-3 ovarian; > 100 µM in the experiment with SF-268 CNS; 97.8 µM with HS 578T breast; > 100 µM with CCRF-CEM leukemia; > 100 µM in the experiment on HT29 colon.

In the case of `Cc1cc(=O)oc2cc(SC(=O)N(C)C)ccc12`, the TGI with HCT-116 colon, in the experiment with MDA-N, with HCC-2998 colon, in the experiment on ACHN renal, with MDA-MB-231 breast and in the experiment with HCT-15 colon was > 100 µM in each case. Further, the TGI in the experiment on SN12C renal, in the experiment with MALME-3M melanoma, in the experiment on OVCAR-4 ovarian, in the experiment on DU-145 prostate, in the experiment on SK-MEL-5 melanoma and with MOLT-4 leukemia was > 100 µM throughout. For the same molecule, the TGI in the experiment with KM12 colon, in the experiment on U251 CNS, in the experiment on SK-OV-3 ovarian, with SF-268 CNS, with HS 578T breast and with HT29 colon was > 100 µM in each case.

As for `O=C(/C=C/c1ccc(O)c(O)c1)OCc1ccccc1`, the TGI with HCT-116 colon was 30.5 µM; with MDA-N, > 100 µM; with HCC-2998 colon, > 100 µM; in the experiment on ACHN renal, 40.7 µM; in the experiment on MDA-MB-231 breast, 67.1 µM; in the experiment on HCT-15 colon, > 100 µM. Further, the TGI worked out at 51.8 µM in the experiment on SN12C renal; 80.4 µM in the experiment on MALME-3M melanoma; 79.2 µM in the experiment on OVCAR-4 ovarian; 39.5 µM in the experiment with DU-145 prostate; 24.3 µM in the experiment with SK-MEL-5 melanoma; 39.1 µM with MOLT-4 leukemia. The TGI is > 100 µM in the experiment on KM12 colon; 49.6 µM in the experiment with U251 CNS; 67.4 µM in the experiment on SK-OV-3 ovarian; 45.8 µM in the experiment with SF-268 CNS; > 100 µM with HS 578T breast; > 100 µM in the experiment with HT29 colon.

Turning to `C=C[C@]1(O)CCC[C@]2(C)C(=O)CCC12C` (some centres undefined), the TGI with HCT-116 colon, in the experiment with MDA-N, in the experiment with HCC-2998 colon, in the experiment with ACHN renal, in the experiment on MDA-MB-231 breast and in the experiment with HCT-15 colon was > 100 µM throughout. For the same molecule, the TGI in the experiment on SN12C renal, in the experiment on MALME-3M melanoma, with OVCAR-4 ovarian, in the experiment on DU-145 prostate, with SK-MEL-5 melanoma and with MOLT-4 leukemia was > 100 µM in each case. Besides, the TGI with KM12 colon, in the experiment on U251 CNS, in the experiment with SK-OV-3 ovarian, with SF-268 CNS, in the experiment with HS 578T breast and in the experiment with HT29 colon was > 100 µM in each case.

Turning to `CC1(C)Oc2ccc3c(=O)c(-c4ccccc4)c(-c4ccccc4)oc3c2C1C(=O)O` (centres undefined), the TGI in the experiment with HCT-116 colon, in the experiment with MDA-N, in the experiment with HCC-2998 colon, in the experiment with MDA-MB-231 breast, with HCT-15 colon and with SN12C renal was > 100 µM in each case. In addition, the TGI in the experiment on MALME-3M melanoma, in the experiment with OVCAR-4 ovarian, in the experiment on DU-145 prostate, in the experiment with SK-MEL-5 melanoma, in the experiment on MOLT-4 leukemia and in the experiment on U251 CNS was > 100 µM in each case. Besides, the TGI in the experiment with SK-OV-3 ovarian, with SF-268 CNS, in the experiment on HS 578T breast, in the experiment with CCRF-CEM leukemia and with HT29 colon was > 100 µM in each case.

`CCCCCN1CCN(c2ncccn2)CC1`: the TGI in the experiment with HCT-116 colon, with MDA-N, in the experiment with HCC-2998 colon, in the experiment on ACHN renal, with MDA-MB-231 breast and with HCT-15 colon was > 100 µM in each case. The TGI with SN12C renal, in the experiment on MALME-3M melanoma, with OVCAR-4 ovarian, in the experiment with DU-145 prostate, with SK-MEL-5 melanoma and in the experiment on KM12 colon was > 100 µM each time. The TGI in the experiment on U251 CNS, in the experiment on SF-268 CNS, in the experiment with HS 578T breast, with CCRF-CEM leukemia and in the experiment on HT29 colon was > 100 µM throughout.

Take `Cc1nnc2sc(Cl)nn12`: the TGI in the experiment on HCT-116 colon worked out at 26.2 µM; with MDA-N, 48.9 µM; in the experiment on HCC-2998 colon, 31.6 µM; with ACHN renal, 54.8 µM; with MDA-MB-231 breast, 54.4 µM; in the experiment with HCT-15 colon, 45.6 µM. Moreover, the TGI with SN12C renal was > 100 µM; in the experiment with MALME-3M melanoma it was 85.6 µM; in the experiment on OVCAR-4 ovarian, 34.3 µM; in the experiment with DU-145 prostate it was > 100 µM; with SK-MEL-5 melanoma, 25.2 µM; with MOLT-4 leukemia, 29.3 µM. The TGI is 28.6 µM in the experiment with KM12 colon; 31.4 µM in the experiment with U251 CNS; 31 µM in the experiment with SK-OV-3 ovarian; > 100 µM with HS 578T breast; 26.4 µM with CCRF-CEM leukemia; 32.9 µM in the experiment with HT29 colon.
